Reference: US11813277B2, “Methods and agents for modulating inflammation” (The Regents of the University of California, priority 2018, dated 2023)

Assays:
A549 cells = experiment: Palmitate-driven respiration in intact A549 cells (Seahorse); format: cell-based; conditions: intact A549, albumin-buffered palmitate
Experimental: All respirometry studies were conducted in either a Seahorse XF96 or XFe96 Analyzer. All experiments were conducted at 37° C., and at pH 7.4 (intact cells) or 7.2 (permeabilized cells and isolated mitochondria). Calculation of respiratory parameters was made according to standard protocols (Divakaruni, A. S., Paradyse, A., Ferrick, D. A., Murphy, A. N., and Jastroch, M. (2014a) Analysis and interpretation of microplate-based oxygen consumption and pH data. Meth. Enzym 547, 509-54), and all rates were corrected for non-mitochondrial respiration/background signal by subtracting the oxygen consumption rate insensitive to rotenone plus antimycin A.
Palmitate oxidation in intact cells (FIG. 1A, FIG. 1B) was assessed by measuring palmitate-driven respiration that was sensitive to low concentrations of etomoxir (Rogers, G. W., Nadanaciva, S., Swiss, R., Divakaruni, A. S., and Will, Y. (2014) Assessment of fatty acid beta oxidation in cells and isolated mitochondria. Curr. Protoc. Toxicol. 60, 25.3, 1-19). […] Respiration was measured under basal conditions as well as after injection of 2 μM oligomycin, two sequential additions of 1 μM FCCP, followed by 0.2 μM rotenone with 1 μM antimycin A. Etomoxir was added to the assay medium 30 min. prior to measurements of basal respiratory rates.

[1] = system: M(IL-4) polarization of BMDMs; experiment: Flow cytometry of IL-4-associated cell surface markers in BMDMs; format: cell-based, mouse
Experimental: For all gene expression and flow cytometry experiments described below, day 6 BMDM were plated at 3×10^5 cell/well in 12-well plates. The next day, cells were treated with appropriate compounds (and duration as indicated in figures and below) in DMEM supplemented with 5% FBS, 2 mM L-glutamine, 100 units/mL, 100 μg/mL penicillin/streptomycin, 500 μM of sodium pyruvate and 5% v/v conditioned media containing macrophage colony stimulating factor (M-CSF).
For flow cytometry experiments involving etomoxir (FIG. 1G, FIG. 2A, FIG. 2D, FIG. 3A, FIG. 3B, FIG. 3G, FIG. 3H): BMDMs were mock-treated (media replacement only) or treated with 20 ng/mL of IL-4±3 μM or 200 μM of etomoxir for 48 hr. When measuring expression of M(IL-4)-associated genes in response to etomoxir (FIG. 1H, FIG. 2B), BMDMs were mock-treated or treated with 20 ng/mL of IL4±etomoxir as indicated for 24 hr.
For experiments involving respiratory chain inhibitors: BMDMs were mock-treated (media replacement only) or treated with 20 ng/mL of IL4±1.2 μM oligomycin (Oligo), 200 nM rotenone (Rot), 200 nM antimycin A (AntiA), 100 nM piericidin A (PierA), or 5 μM carboxyatractylate (CAT) for either 24 (FIG. 4G, FIG. 4H, FIG. 6G) or 48 hr (FIG. 4F, FIG. 7D). All inhibitors were given as co-treatments simultaneously with IL-4.
For experiments involving CoA supplementation (FIG. 10A, FIG. 10B, FIG. 10C, FIG. 10D, FIG. 10E, FIG. 9C, FIG. 9D): BMDMs were mock-treated (media replacement only) or treated with 20 ng/mL of IL4±etomoxir (concentration indicated in figures)±CoA (concentration indicated in figures) for 48 hr. Etomoxir and CoA were given as co-treatments simultaneously with IL-4.
Prior to FACS analysis, BMDMs were detached using 350 μL of Accutase, followed by two washes with FACS buffer (PBS+1% (v/v) BSA+0.05% (w/v) sodium azide). Anti-mouse CD16/32 antibody was used at a dilution of 1:500, while all other antibodies were used at a dilution of 1:250. All flow cytometry data were captured using BD FACSVerse flow cytometer and analyzed using the FlowJo X 10.0.7r2 software. In all, 2×104 live events were acquired for each sample (gated on DAPIneg). For analysis, CD206+/CD71+ and CD206+/CD301+ populations were gated based on Fluorescence Minus One (FMO) controls.

[2] = system: adenine nucleotide translocase (ANT); experiment: ATP hydrolysis in isolated mitochondria, intact or alamethicin-permeabilized; format: biochemical, rat
Description: ATP hydrolysis in isolated mitochondria (McQuaker, S. J., Quinlan, C. L., Caldwell, S. T., Brand, M. D., and Hartley, R. C. (2013). A prototypical small molecule modulator uncouples mitochondria in response to endogenous hydrogen peroxide production. Chembiochem. 14, 993-1000; Divakaruni, A. S., Andreyev, A. Y., Rogers, G. W., and Murphy, A. N. (2017a) In situ measurements of mitochondrial matrix enzyme activities using plasma and mitochondrial membrane permeabilization agents. Anal. Biochem. 17, 30385-8) was performed in MAS buffer, and stimulated by respiratory chain inhibition (1 μM rotenone and 2 μM antimycin A) followed by addition of excess ATP (25 mM) and uncoupler (1 μM FCCP). Hydrolysis was inhibited by injection of either oligomycin (3 ng/mg mitochondrial protein) or carboxyatractylo side (7.5 ng/mg mitochondrial protein). Rates of extracellular acidification (ECAR, in mpH/min) were converted to proton production rates (PPR, in pmol H+/min) by determining the buffer capacity with sequential injections of HCl and H2SO4 (Mookerjee, S. A., Goncalves, R. L., Gerencser, A. A., Nicholls, D. G., and Brand, M. D. (2015). The contributions of respiration and glycolysis to extracellular acid production. Biochim et Biophys Acta. 1847, 171-81). 10 μg/mL alamethicin was used to permeabilize the mitochondrial inner membrane (1 μg/mg mitochondrial protein).

CPT-1a and CPT-1b = conditions: upon enzymatic conversion to etomoxiryl CoA; cited from earlier work
BMDMs = conditions: concentrations as high as 100 μM etomoxir; cited from earlier work

## CCOC(=O)[C@@]1(CCCCCCOc2ccc(Cl)cc2)CO1 [etomoxir]
A549 cells
  half-maximal inhibitory concentration (EC50) for uncoupler-stimulated respiration: sub-micromolar
[1]; 3 μM etomoxir
  CD206+/CD71+ expression in WT and Cpt1a-/- macrophages: lack of an effect
[1]; 3 μM etomoxir, IL-4 20 ng/mL
  expression levels of IL-4-induced CD206, CD71, CD301: no effect
[1]; 200 μM etomoxir
  CD206+/CD71+ expression in WT and Cpt1a-/- macrophages: robust block
[1]; 200 μM etomoxir, IL-4
  population of CD206+/CD71+ cells: strongly reduced
  population of CD301+ cells: little effect
[1]; 500 μM CoA, etomoxir 3-100 μM
  population of CD206+/CD71+ cells: proportionally decreased
[1]; CD206+/CD71+, IL-4
  concentration at which significant changes in macrophage polarization were observed: > 100 µM
[2]; alamethicin-permeabilized mitochondria
  ATP hydrolysis: no effect
[2]; intact isolated mitochondria, etomoxir 100 μM, CAT 7.5 ng/mg, oligomycin 3 ng/mg
  ATP hydrolysis: inhibited ATP hydrolysis
CPT-1a and CPT-1b
  IC50: 10 to 700 nM
BMDMs
  respiration in BMDMs: lack of significant changes in respiration
